Where “and” joins values, the source holds several entries; their conditions need not be identical. Equal entries are not always repeated.
Legend:
[1] = test system: hepatitis B surface antigen (HBsAg) production; assay: Anti-HBSAg Assay (Procedure A); assay type: cell-based, hepatitis B virus; settings: 50 μg/ml
Protocol: The HBV-producing human hepatoblastoma cell line, Hep G2.2.15 was maintained in DMEM supplemented with 10% fetal bovine serum (FBS), 2 mM glutamine, 100 units/ml penicillin, 100 μg/ml streptomycin and 380 μg/ml gentamicin sulfate (G418) at 37° C. under 5% CO2 in air. The Hep G2 parental cells were grown under identical conditions in MEM with Earle's salts without G418.
Hep G2.2.15 cells (190 μl) were seeded onto microtiter plates at a concentration of 20×10^4 cells/ml. The cells incubated overnight in medium without G418 after which the compound compositions (10 μl) were added. Five 2-fold serial dilutions of extracts or fractions were tested starting at 200 μg/ml final culture concentration. PBS and 3TC (lamivudine) were included as the negative and positive controls, respectively. The treated cells were incubated at 37° C. for 4 days, after which the hepatitis B surface antigen (HBsAg) production in culture supernatants was assayed. The HBsAg released into the culture medium in the presence or absence of test samples was assayed using the BIO-RAD Genetic Systems HBsAg EIA 3.0 kit (Bio-Rad, Redmond, Wash.). This enzyme immunoassay is based on the capture of HBsAg on monoclonal antibody-coated plates. Four- and twelve-fold dilutions of all culture supernatants collected were assayed in triplicate wells of the EIA plate. The percentage inhibition of HBsAg secretion in the presence of the plant samples was calculated against the negative control (PBS).

[2] = test system: HBV DNA; assay: Anti-HBV DNA Assay; assay type: cell-based, hepatitis B virus; settings: for HBV DNA copies/ml: replicates, listed as HP-S2
[3] = test system: VSVG/HIV pseudovirions; assay: VSVG/HIV pseudoviral entry into HUH7 cells; assay type: cell-based, vesicular stomtatis virus; settings: 100 μg/mL, FIG. 3
[4] = test system: influenza; assay: influenza virus entry assay; assay type: cell-based; parameters: dose or concentration left out as unconfirmed; settings: FIG. 4
[5] = test system: Ebola; assay type: cell-based; settings: 50 mg·mL; FIG. 4
[6] = test system: HIV; assay: anti-HIV HOG.R5 assay; assay type: cell-based; settings: 20 mcg/ml
[7] = test system: HCV JFH1; assay: HCV JFH1 infectivity assay (JFH1 Foci Reduction Assay); assay type: cell-based, hepatitis C virus; settings: virus preincubated with compound; Huh 7 cells; 48 hr post infection; RD8, RD16, RD17, RD18 as glucosidase hydrolysis products

**Q.** Which results are given for `COC(=O)C1=COC(O)C2C1C(O)C(O)C2(C)O` (mixture of isomers) [lamiridosin]?
**A.** % Control HBSAg [1]: 100%; % Inhibition [1]: 0%; anti-HBSAg assay activity (in words) ([1]; Table 1): inactive; HBV DNA Average ([2]; 9.37 μg/ml): 9.81 × 10^5 copies/ml; HBV DNA Inhibit ([2]; 9.37 μg/ml): 0.00%; HBV DNA copies/ml ([2]; 9.37 μg/ml): 1.12E+6 copies/ml and 1.01E+06 copies/ml and 1.22E+06 copies/ml; HBV DNA Average ([2]; 18.75 μg/ml): 8.90 × 10^5 copies/ml; HBV DNA Inhibit ([2]; 18.75 μg/ml): 23.90%; HBV DNA copies/ml ([2]; 18.75 μg/ml): 8.22E+05 copies/ml and 8.73E+05 copies/ml and 9.76E+05 copies/ml; HBV DNA Average ([2]; 37.5 μg/ml): 6.49 × 10^5 copies/ml; HBV DNA Inhibit ([2]; 37.5 μg/ml): 44.5%; HBV DNA copies/ml ([2]; 37.5 μg/ml): 5.06E+05 copies/ml and 8.57E+05 copies/ml and 5.85E+05 copies/ml; VSVG/HIV pseudoviral entry blocking [3]: does not block; activity against influenza virus entry [4]: inactive; activity against Ebola virus entry [5]: inactive; activity against HIV (HOG.R5 assay) [6]: inactive; Estimated IC50 (inhibition of HCV JFH1 infectivity) [7]: 20 µg/mL
